The molecules below were run on 293T-HRE-GFP-luc cells (assay: Cell-based reporter assay for IC50 determinations (HRE-luciferase, hypoxia)). Settings: 6 h, 6 hrs hypoxia (1% O2), luminescence.
Experimental: Cell-Based Reporter Assay for IC50 Determinations
293T-HRE-GFP-luc cells were routinely maintained in DMEM media (high glucose version with GlutaMAX and HEPES, Gibco, catalog #10564) supplemented with 10% fetal bovine serum and 2 μg/mL puromycin (Invitrogen, catalog #A11138-03) using a humidified incubator (normoxia conditions consisting of 37° C., 5% CO2 and ambient O2).
In preparation for the reporter assay, cells were harvested and resuspended in DMEM media (high glucose version with GlutaMAX and HEPES) supplemented with 10% fetal bovine serum. Cells were inoculated into 384-well white Culturplates (Perkin Elmer catalog #6007680) at a density of 12,000 cells/well in a volume of […]. The microplates were incubated overnight (approximately 17-19 hours) at 37° C. with 5% CO2 and ambient O2. Stock solutions of the test compounds were prepared in DMSO (Sigma, Catalog #D2650) and serially diluted 1:3 using DMSO. Compounds were additionally diluted (1:50) with culturemedium and 10 µL were added per well to the Culturplate. Following a 30 min. incubation under normoxia conditions, the plates were incubated in hypoxia for 6 hrs. (37° C., 5% CO2 and 1% O2). Steadylite Plus (Perkin Elmer, catalog #6016751) was then added ([…]), the plates were mixed on an orbital shaker at room temperature in the dark for 15 min., and luminescence was measured using an Envision plate reader (Perkin Elmer). IC50 values were calculated using a four-parameter logistic curve fit. Results are shown below in Table 2; ND indicates no data.

SMILES | IC50 [nM]
Cc1ccc(-c2nc(-c3ccc(OC(F)(F)F)cc3)no2)c(=O)n1Cc1ccnc(N2CCN(C)CC2)c1 [Example 5, 1-methyl-4-(4-((6-methyl-2-oxo-3-(3-(4-(trifluoromethoxy)phenyl)-1,2,4-oxadiazol-5-yl)pyridin-1(2H)-yl)methyl)pyridin-1-ium-2-yl)piperazin-1-ium bis-trifluoroacetate] | < 100
CC(C)(O)c1cccc(Cn2cc(-c3noc(-c4ccc(C5CCOCC5)cc4)n3)ccc2=O)c1 [Example 214, 1-{[3-(2-hydroxypropan-2-yl)phenyl]methyl}-5-{5-[4-(oxan-4-yl)phenyl]-1,2,4-oxadiazol-3-yl}-1,2-dihydropyridin-2-one] | < 100
COCCOc1cccc(Cn2cc(-c3noc(-c4ccc5c(c4)OCO5)n3)ccc2=O)c1 [Example 223, 5-[5-(2H-1,3-benzodioxol-5-yl)-1,2,4-oxadiazol-3-yl]-1-{[3-(2-methoxyethoxy)phenyl]methyl}-1,2-dihydropyridin-2-one] | 100 to 1000
O=C(c1cccc(Cn2cc(-c3nc(-c4ccc(OC(F)(F)F)cc4)no3)ccc2=O)c1)N1CCOCC1 [Example 114, 1-(3-(morpholine-4-carbonyl)benzyl)-5-(3-(4-(trifluoromethoxy)phenyl)-1,2,4-oxadiazol-5-yl)pyridin-2(1H)-one] | < 100
CC(C)(O)c1cccc(Cn2cc(-c3nnc(-c4ccc(S(=O)(=O)C(F)(F)F)cc4)o3)ccc2=O)c1 [Example 260, 1-{[3-(2-hydroxypropan-2-yl)phenyl]methyl}-5-[5-(4-trifluoromethanesulfonylphenyl)-1,3,4-oxadiazol-2-yl]-1,2-dihydropyridin-2-one] | 100 to 1000
O=c1ccc(-c2nc(-c3ccc(OC(F)(F)F)cc3)no2)cn1Cc1cccc([N+](=O)[O-])c1 [Example 146, 1-[(3-nitrophenyl)methyl]-5-{3-[4-(trifluoromethoxy)phenyl]-1,2,4-oxadiazol-5-yl}-1,2-dihydropyridin-2-one] | 100 to 1000
COCCOc1cccc(Cn2cc(-c3noc(-c4cnc(NCC(C)C)nc4)n3)ccc2=O)c1 [Example 246] | < 100
CS(=O)(=O)C1CCN(c2cccc(Cn3cc(-c4nc(-c5ccc(OC(F)(F)F)cc5)no4)ccc3=O)c2)CC1 [Example 41, 1-{[3-(4-Methanesulfonylpiperidin-1-yl)phenyl]methyl}-5-{3-[4-(trifluoromethoxy)phenyl]-1,2,4-oxadiazol-5-yl}-1,2-dihydropyridin-2-one] | < 100
CCS(=O)(=O)c1cccc(Cn2cc(-c3nc(-c4ccc(OC(F)(F)F)cc4)no3)ccc2=O)c1 [Example 161, 1-{[3-(ethanesulfonyl)phenyl]methyl}-5-{3-[4-(trifluoromethoxy)phenyl]-1,2,4-oxadiazol-5-yl}-1,2-dihydropyridin-2-one] | < 100
CS(=O)(=O)C1CCN(c2cccc(Cn3cc(-c4cc(-c5ccc(OC(F)(F)F)cc5)on4)ccc3=O)c2)CC1 [Example 99, 1-(3-(4-(Methylsulfonyl)piperidin-1-yl)benzyl)-5-(5-(4-(trifluoromethoxy)phenyl)isoxazol-3-yl)pyridin-2(1H)-one] | < 100
CN1CCN(c2cc(Cn3cccc(-c4nc(-c5ccc(OC(F)(F)F)cc5)no4)c3=O)ccn2)CC1 [Example 20, 1-((2-(4-methylpiperazin-1-yl)pyridin-4-yl)methyl)-3-(3-(4-(trifluoromethoxy)phenyl)-1,2,4-oxadiazol-5-yl)pyridin-2(1H)-one] | 100 to 1000
CN1CCN(c2cccc(Cn3cc(-c4cc(-c5ccc(OC(F)(F)F)cc5)no4)ccc3=O)c2)CC1 [Example 96b, 1-(3-(4-methylpiperazin-1-yl)benzyl)-5-(3-(4-(trifluoromethoxy)phenyl)isoxazol-5-yl)pyridin-2(1H)-on] | < 100
NS(=O)(=O)c1cccc(Cn2nc(-c3nc(-c4ccc(OC(F)(F)F)cc4)no3)ccc2=O)c1 [Example 119] | < 100
COCCOc1cccc(Cn2cc(-c3nc(-c4ccc(OC(F)(F)F)cc4)no3)ccc2=O)c1 [Example 33, 1-{[3-(2-Methoxyethoxy)phenyl]methyl}-5-{3-[4-(trifluoromethoxy)phenyl]-1,2,4-oxadiazol-5-yl}-1,2-dihydropyridin-2-one] | 100 to 1000
CC(C)(O)c1cccc(Cn2cc(-c3nc(-c4ccc(OC(F)(F)F)cc4)no3)ccc2=O)c1 [Example 39, 1-{[3-(2-Hydroxypropan-2-yl)phenyl]methyl}-5-{3-[4-(trifluoromethoxy)phenyl]-1,2,4-oxadiazol-5-yl}-1,2-dihydropyridin-2-one] | < 100
Cc1ccc(-c2nc(-c3ccc(OC(F)(F)F)cc3)no2)c(=O)n1Cc1cccc(C(N)=O)c1 [Example 22, 3-((6-Methyl-2-oxo-3-(3-(4-(trifluoromethoxy)phenyl)-1,2,4-oxadiazol-5-yl)pyridin-1(2H)-yl)methyl)benzamide] | 100 to 1000
O=c1ccc(-c2nc(-c3ccc(OC(F)(F)F)cc3)no2)nn1Cc1ccc(F)c(N2CCOCC2)c1 [Example 111, 2-(4-fluoro-3-morpholinobenzyl)-6-(3-(4-(trifluoromethoxy)phenyl)-1,2,4-oxadiazol-5-yl)pyridazin-3(2H)-one] | < 100
O=c1ccc(-c2nc(-c3ccc(OC(F)(F)F)cc3)no2)nn1Cc1ccnc(N2CCNCC2)c1 [Example 1] | < 100
CS(=O)(=O)CCCOc1cccc(Cn2cc(-c3noc(-c4ccc(OC(F)F)cc4)n3)ccc2=O)c1 [Example 207] | < 100
COCCOc1cccc(Cn2nc(-c3nc(-c4ccc(OC(F)(F)F)cc4)no3)ccc2=O)c1 [Example 177, 2-{[3-(2-methoxyethoxy)phenyl]methyl}-6-{3-[4-(trifluoromethoxy)phenyl]-1,2,4-oxadiazol-5-yl}-2,3-dihydropyridazin-3-one] | < 100
COC(=O)C(C)(C)c1cccc(Cn2nc(-c3nc(-c4ccc(OC(F)(F)F)cc4)no3)ccc2=O)c1 [Example 30, Methyl 2-methyl-2-{3-[(6-oxo-3-{3-[4-(trifluoromethoxy)phenyl]-1,2,4-oxadiazol-5-yl}-1,6-dihydropyridazin-1-yl)methyl]phenyl}propanoate] | < 100
CN1CCN(C(=O)c2cc(Cn3nc(-c4nc(-c5ccc(OC(F)(F)F)cc5)no4)ccc3=O)ccn2)CC1 [Example 125, 2-((2-(4-methylpiperazine-1-carbonyl)pyridin-4-yl)methyl)-6-(3-(4-(trifluoromethoxy)phenyl)-1,2,4-oxadiazol-5-yl)pyridazin-3(2H)-one] | 1000 to 10000
COCCOc1cccc(Cn2cc(-c3noc(-c4ccc(C(C)(C)COC)cc4)n3)ccc2=O)c1 [Example 72, 15-(5-(4-(1-Methoxy-2-methylpropan-2-yl)phenyl)-1,2,4-oxadiazol-3-yl)-1-(3-(2-methoxyethoxy)benzyl)pyridin-2(1H)-one] | < 100
CCCS(=O)(=O)c1cccc(Cn2cc(-c3nc(-c4ccc(OC(F)(F)F)cc4)no3)ccc2=O)c1 [Example 37, 1-{[3-(propane-1-sulfonyl)phenyl]methyl}-5-{3-[4-(trifluoromethoxy)phenyl]-1,2,4-oxadiazol-5-yl}-1,2-dihydropyridin-2-one] | < 100
O=c1ccc(-c2nc(-c3ccc(OC(F)(F)F)cc3)no2)nn1Cc1cccc(N2CCOCC2)c1 [Example 14, 2-(3-Morpholinobenzyl)-6-(3-(4-(trifluoromethoxy)phenyl)-1,2,4-oxadiazol-5-yl)pyridazin-3(2H)-one] | < 100

Reference: patent US20140073634A1 (Institute For Applied Cancer Science/The University of …, priority 2012, published 2014)
